In brackets after ≈: the same amount, converted by molar mass. Like-named read-outs stand apart in the source and are kept apart here.
Assays:
[1] = system: BALB/c 3T3 (CCL-163) cells; experiment: 3T3 phototoxicity assay (Neutral Red uptake, with/without UVA); conditions: 5 J/cm^2 UVA vs dark; for PIF 1 (photoirritancy factor, IC50(-UVA)/IC50(+UVA), earlier software): 1 = no measurable phototoxicity, >5 phototoxic potential; for MPE (mean photo effect): <0.1 nonphototoxin, 0.1 to <0.15 probable, >=0.15 clear phototoxin
[2] = system: Candida albicans, ATCC 14053; experiment: Fungal growth on SABHI agar containing CMT (Example 38); format: cell-based; conditions: 25 μg/ml, 30° C., growth grade
Procedure: (§1) The following fungi were inoculated onto potato dextrose agar (PDA) from stock cultures and incubated aerobically at 30° C.: Aspergillus [NT] 1022, Penicillium sp. (laboratory isolate), Candida albicans, ATCC 14053, and Rhizopus sp. […] The conidia were suspended in 0.9% saline and the turbidity was adjusted to match a 0.5 MacFarland standard (equivalent to approximately 1.5×10^8 cells). Candida albicans was suspended in saline and adjusted to 0.5 MacFarland in a similar manner. These suspensions were diluted 1:100 in sterile 0.9% saline. SABHI Agar (Difco) pH 7.0 was prepared in 100 ml amounts and sterilized at 121° C. for 15 min. […] SABHI Agar plates of each CMT and SAHBI agar without CMT using dimethylsulphoxide (DMSO) as a control were inoculated with 10 μl of conidia suspension of Aspergillus fumigatus, Penicillium sp. and Rhizopus sp. and 10 μl suspension of Candida albicans prepared as described above. The plates were then incubated aerobically for 24 hour and for 48 hours at 30° C. The results are set forth in Table 1 (24 hr. incubation) and Table 2 (48 hr. incubation). [table]

[3] = system: Aspergillus fumigatus ATCC 1022; experiment: as above; format: cell-based; conditions: 25 μg/ml, 30° C., growth grade
Procedure: as §1

[4] = system: Penicillium sp. (laboratory isolate); experiment: as above; format: cell-based; conditions: 25 μg/ml, 30° C., growth grade
Procedure: as §1

Rhizopus sp. = experiment: as above; format: cell-based; conditions: 25 μg/ml, 30° C., growth grade
Procedure: as §1

[5] = system: eleven different species of fungi; conditions: cited from earlier work
Ulocladium Species = experiment: IC50 and MIC on microplate agar gels (Example 40); format: cell-based; conditions: agar gel, 0.25-4.00 μg/ml, 30° C., 24 hours, NI = no detectable inhibition
Procedure: (§2) Each drug was dissolved in DMSO (1.0 mg/ml) as a stock solution and stored at −20° C. Just prior to use, each stock solution was thawed and diluted in DMSO to produce 6 different 100× concentrations. Potato dextrose agar was dissolved in distilled water (39 g/L) and sterilized at […] (250° F.) for 15 min. The agar solution was mixed with each drug (in a water bath at 60° C.) to make a series of final concentrations, i.e. 0.00, 0.25, 0.50, 1.00, 2.00, 4.00 μg/ml. The mixtures were then transferred to 24-well plates (1 ml/well). After the gel had formed, the fungus in PBS (spore count=1-5×10^4/ml) was inoculated by pipetting 10 μl onto each gel. The plates were incubated at 30° C. for different times, depending on the requirement of each species, e.g. 24 hours for Penicillium, Rhizopus, Tricothecium, Ulocladium, Absidia, Aspergilus, Caindida, Cunninghamella, 3 days for Scedosporium, and 5 days for Fonsecae and Phialophora.
(§3) “*” indicates better than or similar results to Amphotericin B. “NI” indicates no detectable inhibition.

Scedosporium Apiospermum = experiment: IC50 and MIC on microplate agar gels (Example 40); format: cell-based; conditions: agar gel, 0.25-4.00 μg/ml, 30° C., 3 days, NI = no detectable inhibition
Procedure: as §2, §3

Penicillium Species = experiment: IC50 and MIC on microplate agar gels (Example 40); format: cell-based; conditions: agar gel, 0.25-4.00 μg/ml, 30° C., 24 hours, NI = no detectable inhibition
Procedure: as §2, §3

Tricothecium Species = experiment: IC50 and MIC on microplate agar gels (Example 40); format: cell-based; conditions: agar gel, 0.25-4.00 μg/ml, 30° C., 24 hours, NI = no detectable inhibition
Procedure: as §2, §3

[6] = system: 11 different species of fungi; experiment: Summary of Example 40 over the whole panel; format: cell-based; conditions: 11 tested fungi, up to 4.00 μg/ml
Procedure: as §2, §3

Candida Albicans = experiment: IC50 and MIC on microplate agar gels (Example 40); format: cell-based; conditions: Candida albicans; agar gel, 0.25-4.00 μg/ml, 30° C., 24 hours; NI = no detectable inhibition; read-out: IC50
Procedure: as §2, §3

Phialophora Verrucosa = experiment: IC50 and MIC on microplate agar gels (Example 40); format: cell-based; conditions: Phialophora verrucosa, 120 h; agar gel, 0.25-4.00 μg/ml, 30° C., 5 days; NI = no detectable inhibition; read-out: IC50
Procedure: as §2, §3

Cunninghamella Species = experiment: IC50 and MIC on microplate agar gels (Example 40); format: cell-based; conditions: Cunninghamella; agar gel, 0.25-4.00 μg/ml, 30° C., 24 hours; NI = no detectable inhibition; read-out: IC50
Procedure: as §2, §3

Fonsecae Species = experiment: IC50 and MIC on microplate agar gels (Example 40); format: cell-based; conditions: 120 h; agar gel, 0.25-4.00 μg/ml, 30° C., 5 days; NI = no detectable inhibition; read-out: IC50
Procedure: as §2, §3

Absidia Species = experiment: IC50 and MIC on microplate agar gels (Example 40); format: cell-based; conditions: Absidia; agar gel, 0.25-4.00 μg/ml, 30° C., 24 hours; NI = no detectable inhibition; read-out: IC50
Procedure: as §2, §3

Aspergilus Fumigatus = experiment: IC50 and MIC on microplate agar gels (Example 40); format: cell-based; conditions: agar gel, 0.25-4.00 μg/ml, 30° C., 24 hours; NI = no detectable inhibition; read-out: IC50
Procedure: as §2, §3

Rhizopus Species = experiment: IC50 and MIC on microplate agar gels (Example 40); format: cell-based; conditions: Rhizopus; agar gel, 0.25-4.00 μg/ml, 30° C., 24 hours; NI = no detectable inhibition; read-out: IC50
Procedure: as §2, §3

In the case of “2-CONHCH2-pyrrolidin-1-yl-4-dedimthylaminodoxycycline [COL 807]”, the “PIF 1 (photoirritancy factor, IC50(-UVA)/IC50(+UVA), earlier software)” value [1] is reported as 40.4 and the “MPE (mean photo effect)” value [1] is reported as 0.382.

In the case of `CC1c2cccc(O)c2C(=O)C2=C(O)C3(O)C(=O)C(C(N)=O)=C(O)CC3C(O)C21` (centres unmarked) [COL 8, 4-dedimethylaminodoxycycline], the “Growth at 25 μg/ml compared to control at 24 hrs incubation” value [2] is reported as 4 (Level of growth in the absence of anti-fungal agent (control).), the “Growth at 25 μg/ml compared to control at 48 hours” value [2] is reported as 4 (Level of growth in the absence of anti-fungal agent (control).) and the “Growth at 25 μg/ml compared to control at 48 hours” value [3] is reported as 4 (Level of growth in the absence of anti-fungal agent (control).). The “Growth at 25 μg/ml compared to control at 24 hrs incubation” value [4] was 3 (25% reduction in growth of colonies compared to control.), the “Growth at 25 μg/ml compared to control at 48 hours” value [4] was 4 (Level of growth in the absence of anti-fungal agent (control).) and the “Growth at 25 μg/ml compared to control at 24 hrs incubation” value (Rhizopus sp.) was 4 (Level of growth in the absence of anti-fungal agent (control).). For the same molecule, the “Growth at 25 μg/ml compared to control at 48 hours” value (Rhizopus sp.) was 4 (Level of growth in the absence of anti-fungal agent (control).), the “Anti-fungal activity in vitro (Lu et al.)” value [5] was “weak or no anti-fungal activity” and the IC50 (Ulocladium Species) was 2.0 µg/mL (≈ 4.98 µM). The MIC (Ulocladium Species) was >4 µg/mL, the IC50 (Scedosporium Apiospermum) was 2.0 µg/mL (≈ 4.98 µM) and the MIC (Scedosporium Apiospermum) was >4 µg/mL. The IC50 (Penicillium Species) was 2.0 µg/mL (≈ 4.98 µM), the MIC (Penicillium Species) was >4 µg/mL and the IC50 (Tricothecium Species) was 0.7 µg/mL (≈ 1.74 µM). The MIC (Tricothecium Species) was 2.0 µg/mL (≈ 4.98 µM) and the “Antifungal activity over the panel (summary in words)” value [6] was “had effects on some of these fungi”.

In the case of `C[C@H]1c2cccc(O)c2C(=O)C2=C(O)[C@]3(O)C(=O)C(C(N)=O)=C(O)[C@@H](N(C)C)[C@@H]3[C@@H](O)[C@@H]21` [Doxycycline, 6α-deoxy-5-hydroxytetracycline, reference compound], the IC50 (Candida Albicans) is reported as > 4 µg/mL, the IC50 (Phialophora Verrucosa) is reported as > 4 µg/mL and the IC50 (Cunninghamella Species) is reported as > 4 µg/mL. For the same molecule, the IC50 (Fonsecae Species) was > 4 µg/mL, the IC50 (Ulocladium Species; read-out: IC50) was > 4 µg/mL and the IC50 (Scedosporium Apiospermum; Scedosporium apiospermum, 72 h, read-out: IC50) was > 4 µg/mL. For the same molecule, the IC50 (Absidia Species) was > 4 µg/mL, the IC50 (Aspergilus Fumigatus) was > 4 µg/mL and the IC50 (Rhizopus Species) was > 4 µg/mL. The IC50 (Penicillium Species; Penicillium, read-out: IC50) was > 4 µg/mL, the IC50 (Tricothecium Species; read-out: IC50) was 4 µg/mL (≈ 9 µM) and the MIC (Tricothecium Species; read-out: MIC) was > 4 µg/mL.

With `CN(C)c1cc([N+]#N)c(O)c2c1CC1CC3CC(O)=C(C(N)=O)C(=O)C3(O)C(O)=C1C2=O.O=S(=O)([O-])O` (centres unmarked) [Example 4, 4-Dedimethylamino-7-dimethylamino-6-demethyl-6-deoxy-9-diazoniumtetracycline sulfate] the “Growth at 25 μg/ml compared to control at 24 hrs incubation” value [2] was 1 (75% reduction in growth in colonies compared to control.), the “Growth at 25 μg/ml compared to control at 48 hours” value [2] was 4 (Level of growth in the absence of anti-fungal agent (control).) and the “Growth at 25 μg/ml compared to control at 24 hrs incubation” value ([3]; 24 hrs) was 0 (complete inhibition of growth.). The “Growth at 25 μg/ml compared to control at 48 hours” value [3] was 1 (75% reduction in growth in colonies compared to control.), the “Growth at 25 μg/ml compared to control at 24 hrs incubation” value [4] was 3 (25% reduction in growth of colonies compared to control.) and the “Growth at 25 μg/ml compared to control at 48 hours” value [4] was 0 (complete inhibition of growth.). For the same molecule, the “Growth at 25 μg/ml compared to control at 24 hrs incubation” value (Rhizopus sp.) was 4 (Level of growth in the absence of anti-fungal agent (control).) and the “Growth at 25 μg/ml compared to control at 48 hours” value (Rhizopus sp.) was 4 (Level of growth in the absence of anti-fungal agent (control).).

With `CN(C)[C@@H]1C(O)=C(C(N)=O)C(=O)[C@@]2(O)C(O)=C3C(=O)c4c(O)cccc4[C@@](C)(O)[C@H]3C[C@@H]12` [Tetracycline, reference compound] the “PIF 1 (photoirritancy factor, IC50(-UVA)/IC50(+UVA), earlier software)” value [1] was 5.38 and the “MPE (mean photo effect)” value [1] was 0.340.

From US20050153943A1, “Methods of simultaneously treating mucositis and fungal infection” (priority 2002, published 2005)
